Earlier results, collected in patent US20030109512A1, “Use of 4-androstenediol and 4-androstenediol in a transdermal formulation to increase testosterone levels in humans” (priority 2001, published 2003).

Test system: estrogen levels
Conditions: some studies indicate

## C[C@]12CCC(=O)C=C1CC[C@@H]1[C@@H]2CC[C@]2(C)C(=O)CC[C@@H]12 [androstenedione]
  effect on estrogen levels: causes elevation of estrogen levels
